# In patent US20140011755A1, “Cardiac Glycosides for Treating Autoimmune Disease” (Department of Veterans Affairs, priority 2010, published 2014):
# Experiments:
# [1] = test system: collagen-induced arthritis (CIA) joints; type: in vivo, DBA1/J mice; settings: cross-sectioned ankle joints, CIA prevention groups
# Experimental: FIG. 7. Cardiac glycosides reduce joint pathology in the CIA mouse model for rheumatoid arthritis. Blinded scoring was performed on histologic sections of joints harvested from mice at the end of a CIA prevention study (A-C). Joints derived from three representative mice belonging to each prevention group (A-C) were decalcified, fixed and stained with tolidine blue, followed by scoring by an examiner blinded to treatment status for the severity of synovitis (inflammation), pannus (growth of the synovial lining), and erosions of bone. (D-G) Joints derived from three representative mice belonging to each prevention group were decalcified, fixed, and stained with hematoxylin and eosin. Cross-sectioned ankle joints from vehicle (D), digitoxin (E), ouabain (F) and proscillaridin (G) treated mice are presented. Error bars represent SEM, and asterisks indicate P-values less than 0.05 by Mann-Whitney test.
# In treatment studies, mice were randomly enrolled in treatment groups and treatment commenced when the average clinical score was at or above 2. […] Daily dosing commenced upon enrollment at the abovementioned concentrations. […] Double-blinded histopathology scoring was conducted of cross-sectioned joints taken from cardiac glycoside and vehicle recipients. […] The results obtained from these animal studies indicate that cardiac glycosides are effective at reducing the clinical manifestations of disease and reducing joint pathology in mice with collagen arthritis.
# The effects of the different cardiac glycoside treatments on CIA pathology was analyzed by histological scoring. Inflammatory cell infiltrate, synovial hyperplasia, pannus formation and articular cartilage and bone deterioration were evaluated in sectioned paws of treated mice at specific time-points throughout the disease course. […] The ELISA was developed and read using BD ELISA development kit. […]
# [2] = test system: naïve CD4+ T cells, regulatory T cells; test: Mixed lymphocyte study, pre-treated CIA B cells with naïve CD4+ T cells; type: cell-based, mice; settings: B cells treated 33 nM for 1 hr, co-culture 72 hr
# Experimental: FIG. 25. […] (A) Representative data from mixed lymphocyte studies. […] B cells were washed, replated in complete RPMI supplemented with BAFF (1 ng/mL), anti-CD3 antibody (4 μg/mL) and were added to 5×10^5 naïve CD4^+ T cells purified by MACS. Cells were incubated for 72 hr prior to harvest. IL-6, IL-10, TGFβ and IL-17 cytokine levels were measured by ELISA (R&D Systems, Peprotech, and eBiosciences). Data represent the average absorbance (A450) of triplicates and error bars represent the SEM. […] Cells were fixed in 4% paraformaldehyde for 15 minutes, washed twice with PBS and blocked with FACS buffer. Cells were stained for regulatory T cells using anti-TCRβ, anti-CD4, anti-CD25 and anti-FoxP3 antibodies (Cell Signaling Technologies, R&D Systems, AbCam). FACS was performed on the FACS Aria (Becton-Dickenson). Data represent the average population in 500,000 cells from 4 mice per treatment group. Error bars represent the SEM.
# It is known that B cells can regulate T cell differentiation and in many states of autoimmune disease, an imbalance of Th1, Th2, and Th17 T cell populations exist. […] We performed studies to determine the regulatory effector function of B cells pre-treated with cardiac glycoside on T cell differentiation. […]
# phospho-STAT3 (Y705) = test: STAT3 phosphorylation in cells from CIA mice (flow cytometry, Western blot); type: cell-based; settings: splenic B cells from CIA mice, 33 nM, 30 minutes / 0-60 minutes
# Experimental: FIG. 15. […] Flow cytometry was performed using the FACSAria II (Bectin Dickenson). […] Lysates were quantified for total protein using the Nanodrop, and verification was performed by BCA (Pierce). Lysates were loaded onto SDS-PAGE and transferred to PVDF (Millipore). Membranes were blotted for phospho-STAT3 (Y705) and beta-actin.
# Cardiac glycosides were administered at endogenous levels (sub- and nano Molar) or therapeutic levels (nano Molar) to modulate transcription factor activity and gene expression. Alteration of STAT1 activity has been observed in Alzheimer's disease and susceptibility to lethal intracellular pathogenic diseases (Kitamura et al, 1997; Chapgier et al, 2009). Aberrant STAT2 levels have been linked to inflammatory disease such as Crohn's disease (CD), ulcerative colitis (UC) and inflammatory bowel disease (IBD), and cancers such as colorectal and skin cancers (Gamero et al, 2010). STAT3 signaling is a critical component of Th17-dependent autoimmune processes. […] Mice with targeted deletion of Stat3 in T cells are resistant to experimental autoimmune encephalomyelitis, which is a multiple sclerosis (MS) model. […] STAT phosphorylation can be assessed by phospho-flow cytometric analysis, Western immunoblot and ELISA of circulating PBMCs or of biopsied tissues.
smiles,measurement,setting,value
"C[C@H]1O[C@@H](O[C@H]2[C@@H](O)C[C@H](O[C@H]3[C@@H](O)C[C@H](O[C@H]4CC[C@@]5(C)[C@H](CC[C@@H]6[C@@H]5CC[C@]5(C)[C@@H](C7=CC(=O)OC7)CC[C@]65O)C4)O[C@@H]3C)O[C@@H]2C)C[C@H](O)[C@@H]1O [Digitoxin, digitoxin]",immune cell infiltrate into the joints (hematoxylin and eosin),[1],decreased amounts of immune cell infiltrate
same,induction of regulatory T cells in vitro,[2],induce regulatory T cells
same,STAT3 phosphorylation (Y705),phospho-STAT3 (Y705),stimulate STAT3 phosphorylation
